From ChEMBL document CHEMBL1201862, “PubChem BioAssay data set” (2004)
Active and inactive are the calls of the source.

Tested on: not listed separately
Assay: inhibitors of intracellular T. cruzi replication, confirmation, NIH3T3 host cells, beta-gal luminescence (AID 2044);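 also: intracellular parasites grown in NIH/3T3 mouse fibroblasts as host cells; luminescent beta-galactosidase reporter signal from transgenic T. cruzi replicating inside host cells; inhibitors lower the luminescence signal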
Format: functional, cell-based
Details: not given

| SMILES | EC50 |
| --- | --- |
| C=C1SC(Nc2c(C)cc(C)cc2C)=NC12CCCCC2 | 561 nM (active) |
| Cc1ccc(C(=O)N2N=C(c3ccc(Br)cc3)CC2c2ccccc2O)cc1 (stereo unspecified) | 2150 nM (active) |

Target: T1, Rac GTPase-activating protein 1 (Homo sapiens, UniProt Q9H0H5)
T1 sequence (Q9H0H5 whole entry): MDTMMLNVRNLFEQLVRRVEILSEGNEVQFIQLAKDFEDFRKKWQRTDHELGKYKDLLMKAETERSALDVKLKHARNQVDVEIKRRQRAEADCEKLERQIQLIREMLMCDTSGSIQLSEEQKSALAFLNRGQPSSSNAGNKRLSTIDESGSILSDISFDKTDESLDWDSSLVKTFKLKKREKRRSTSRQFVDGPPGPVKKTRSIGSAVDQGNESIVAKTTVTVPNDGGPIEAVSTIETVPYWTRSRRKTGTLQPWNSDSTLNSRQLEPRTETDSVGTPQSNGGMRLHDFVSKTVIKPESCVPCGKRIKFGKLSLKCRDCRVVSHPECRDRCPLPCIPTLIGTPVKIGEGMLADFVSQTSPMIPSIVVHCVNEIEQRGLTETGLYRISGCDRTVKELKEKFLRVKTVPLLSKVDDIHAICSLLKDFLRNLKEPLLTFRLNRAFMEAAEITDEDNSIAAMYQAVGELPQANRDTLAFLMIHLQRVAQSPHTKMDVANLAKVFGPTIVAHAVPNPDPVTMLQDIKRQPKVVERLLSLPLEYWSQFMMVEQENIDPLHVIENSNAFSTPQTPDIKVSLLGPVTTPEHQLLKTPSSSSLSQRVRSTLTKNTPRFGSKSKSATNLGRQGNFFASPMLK
Assay: MgcRacGAP GTPase-activating activity inhibitors, confirmation, biochemical, ADP Hunter fluorescence, primary and confirmatory (AID 624330)
Format: functional
Details: not given

| SMILES | IC50 |
| --- | --- |
| COc1nc(Nc2ccc(O)cc2)nc(OC(C(F)(F)F)C(F)(F)F)n1 | 35.1 µM (active) |
| CN(Cc1ccccc1)C(=O)C1CCCN(Cc2ccc(Cl)cc2)C1 (stereo unspecified) | 161 µM (active) |
| COc1cc(N)ccc1NC(=O)c1cccs1 | 106 µM (active) |
| Oc1ccccc1/C=N/C1=NN(c2cccc(C(F)(F)F)c2)CC1 | 16.9 µM (active) |
| COc1ccc(CNc2ncc(-c3ccc(F)cc3)n2C)cc1OC | 56.8 µM (active) |
| Cc1ccc(NC(=O)CNCCCN2CCOCC2)cc1S(=O)(=O)N1CCCCC1 | 76.5 µM (active) |
| CSc1ncnc2c1ncn2CCCNc1ccc(C)c(C)c1 | 207 µM (active) |
| COc1cc(OC)c(CN2CCCN(C)CC2)cc1Br | 107 µM (active) |
| C=CCNC(=S)N1CCN(Cc2ccc3c(c2)OCO3)CC1 | 158 µM (active) |

Target: T2, Heat shock factor protein 1 (Mus musculus, UniProt P38532)
T2 sequence (P38532 whole entry): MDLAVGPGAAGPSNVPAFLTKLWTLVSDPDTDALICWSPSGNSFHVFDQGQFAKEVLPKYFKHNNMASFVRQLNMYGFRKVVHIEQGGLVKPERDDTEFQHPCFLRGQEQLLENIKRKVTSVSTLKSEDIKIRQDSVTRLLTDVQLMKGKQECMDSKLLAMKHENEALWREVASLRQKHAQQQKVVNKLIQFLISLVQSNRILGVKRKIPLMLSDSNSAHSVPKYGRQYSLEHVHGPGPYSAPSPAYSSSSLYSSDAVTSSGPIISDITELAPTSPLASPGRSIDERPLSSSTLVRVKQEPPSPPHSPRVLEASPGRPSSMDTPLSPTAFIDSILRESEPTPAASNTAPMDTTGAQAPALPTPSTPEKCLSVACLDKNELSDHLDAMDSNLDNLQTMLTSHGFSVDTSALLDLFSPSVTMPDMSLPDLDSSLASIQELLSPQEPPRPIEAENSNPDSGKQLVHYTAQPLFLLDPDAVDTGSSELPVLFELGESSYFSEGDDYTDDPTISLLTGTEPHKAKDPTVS
Assay: inhibition of MG132-induced HSE-luciferase signal, confirmation, cell-based, NIH3T3, luminescence, dose retest (AID 2382);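 also: NIH3T3 fibroblasts with HSF1-driven luciferase reporter stressed by proteasome inhibitor MG132; luminescence from HSF1-driven luciferase expression after 8 hours of MG132 stress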
Format: functional
Details: not given

| SMILES | EC50 |
| --- | --- |
| COc1ccc2nc(NC(=O)CN3CCOCC3)sc2c1 | > 195 µM (not active) |
| C=C1SC(Nc2c(C)cc(C)cc2C)=NC12CCCCC2 | > 195 µM (not active) |
| CCOC(=O)c1c(NC(=O)CNC2CCCc3ccccc32)sc(C(N)=O)c1C (stereo unspecified) | 25 µM (active) |
| CC(=O)COc1ccccc1OC(=O)c1ccco1 | > 195 µM (not active) |
| CCCCOc1ccc(N2CC(C(=O)NCCc3ccc(OC)c(OC)c3)CC2=O)cc1 (stereo unspecified) | > 195 µM (not active) |
| COc1cccc2cc(C(=O)OC3CCN(C)CC3)c(=O)oc12 | > 195 µM (not active) |
| Cn1cc(/C=C(\C#N)C(=O)Nc2cccc([N+](=O)[O-])c2)c2ccccc21 | 4.14 µM (active) |
| O=C1CCC(=O)N1CNc1ccccn1 | > 195 µM (not active) |
| CS(=O)(=O)N(CC(=O)NCc1ccccc1)C1CCCCC1 | > 195 µM (not active) |
| CCc1cccc(NC(=O)COC(=O)/C=C/c2cccs2)c1 | > 195 µM (not active) |
| O=C(NCc1ccc2c(c1)OCO2)c1cc2c(s1)CS(=O)(=O)C2 | > 195 µM (not active) |
| CC1(C)CC(=O)C2=C(C1)N(c1ccc(F)cc1)C(=O)CC2c1ccccc1 (stereo unspecified) | > 195 µM (not active) |

Tested on: not listed separately
Assay: Luminescence Cell-Based Dose Retest to Confirm Inhibitors of Cancer Stem Cells. [Related pubchem assays (depositor defined):AID2717, AID2721]
Format: functional
Details: Homo sapiens

| SMILES | AC50 |
| --- | --- |
| Cc1ccc(C(=O)N2N=C(c3ccc(Br)cc3)CC2c2ccccc2O)cc1 (stereo unspecified) | 3.63 µM (active) |
| CCC1C=CC=CC[C@H](C)[C@@H](O)[C@](C)(O)C(=O)[C@@H](C)[C@H](O)[C@@H](C)C(=O)[C@H](C)[C@@H](O)[C@H](C)C=CC(=O)OC2[C@@H](C)C(CC1)OC1(CC[C@@H](C)C(C[C@H](C)O)O1)[C@@H]2C (stereo partly specified) | 2.9 µM (active) |
| C/C(=N\NC(=O)c1nnn(-c2nonc2N)c1CN1CCc2ccccc21)c1ccccc1O | 2.72 µM (active) |
| CCCCN=C(NNc1ccc(Br)cc1)C(=O)OCC | 2.89 µM (active) |
| NC(=O)CC(NC(=O)Cc1ccc(Br)cc1)c1ccc(N2CCC(Cc3ccccc3)CC2)c([N+](=O)[O-])c1 (stereo unspecified) | 12.3 µM (active) |
| CNC(C)C(=O)NC(C(=O)N1CCCC1C(=O)NNc1ccccc1)C(C)C (stereo unspecified) | 2.17 µM (active) |

Tested on: INS1
Assay: beta cell apoptosis inhibitors, cytokine rescue, dose response, luminescence, retest (AID 449756);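 also: cell death triggered by IL-1 beta plus TNF-alpha plus IFN-gamma mixture; protective hits raise ATP signal compared with cytokine alone wells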
Format: functional, cell-based
Details: Rattus norvegicus

| SMILES | AC50 |
| --- | --- |
| Cc1ccc(C(=O)N2N=C(c3ccc(Br)cc3)CC2c2ccccc2O)cc1 (stereo unspecified) | 7.42 µM (active) |
| C/C(=N\NC(=O)c1nnn(-c2nonc2N)c1CN1CCc2ccccc21)c1ccccc1O | 1.98 µM (active) |

Tested on: not listed separately
Assay: cytotoxicity toward NIH3T3 fibroblasts, dose response, counter-screen, cell-based, ATP luminescence, mouse fibroblasts (AID 2010);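 also: cells exposed to compound for about 90 hours before reading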
Format: functional
Details: not given

| SMILES | EC50 |
| --- | --- |
| C=C1SC(Nc2c(C)cc(C)cc2C)=NC12CCCCC2 | > 60 µM (not active) |
| Cc1ccc(C(=O)N2N=C(c3ccc(Br)cc3)CC2c2ccccc2O)cc1 (stereo unspecified) | 13.6 µM (active) |

Tested on: not listed separately
Assay: cells
Format: functional
Details: not given

| SMILES | IC50 |
| --- | --- |
| CCn1nnc(NC(=O)COc2ccc(C3CCCCC3)cc2)n1 | 18.4 µM (active) |
| CCOC(=O)c1nn(-c2ccccc2)c2nc(Nc3ccccc3)cc(=O)n12 | 5.99 µM (active) |
| O=C(N/N=C/c1ccc(OC(=O)c2ccco2)cc1)c1ccccn1 | 20.6 µM (active) |
| COC(=O)COc1ccc2c(=O)c(-c3ccccc3OC)coc2c1 | 5.9 µM (active) |
| Cc1ccc(C)c(NC(=O)c2cc([N+](=O)[O-])cc([N+](=O)[O-])c2)c1 | 10.1 µM (active) |
| OCC#CCSc1nnc(-c2ccc(Br)cc2)o1 | 5.2 µM (active) |
| Brc1c(-c2ccc3c(c2)OCO3)nc2ncccn12 | 4.7 µM (active) |
| CCOc1ncccc1C(=O)OCC(=O)N1CCc2ccccc21 | 13.9 µM (active) |
